EC50 data for two compounds are collected here from ChEMBL document CHEMBL5728714, “Aryl heterocyclic piperidinone formyl peptide 2 receptor and formyl peptide 1 receptor agonists” (2021).

The target in the assay is T1, N-formyl peptide receptor 2 (Homo sapiens, UniProt P25090).
T1 sequence (P25090 whole entry): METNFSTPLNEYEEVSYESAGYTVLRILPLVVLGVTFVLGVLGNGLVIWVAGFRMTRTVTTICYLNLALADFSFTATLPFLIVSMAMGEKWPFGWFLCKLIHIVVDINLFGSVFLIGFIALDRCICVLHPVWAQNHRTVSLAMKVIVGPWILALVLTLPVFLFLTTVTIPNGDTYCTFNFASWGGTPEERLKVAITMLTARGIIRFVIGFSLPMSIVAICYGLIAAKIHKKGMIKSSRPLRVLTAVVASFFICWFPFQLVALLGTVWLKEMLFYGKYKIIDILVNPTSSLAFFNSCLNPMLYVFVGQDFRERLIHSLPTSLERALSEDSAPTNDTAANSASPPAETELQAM
The assay is described as follows: FPR2 and FPR1 Cyclic Adenosine Monophosphate (cAMP) Assays: A mixture of forskolin (5 μM final for FPR2 or 10 μM final for FPR1) and IBMX (200 μM final) were added to 384-well Proxiplates (Perkin-Elmer) pre-dotted with test compounds in DMSO (1% final) at final concentrations in the range of 1.7 nM to 100 μM. Chinese Hamster Ovary cells (CHO) overexpressing human FPR1 or human FPR2 receptors were cultured in F-12 (Ham's) medium supplemented with 10% qualified FBS, 250 μg/ml zeocin and 300 μg/ml hygromycin (Life Technologies). Reactions were initiated by adding 2,000 human FPR2 cells per well or 4,000 human FPR1 cells per well in Dulbecco's PBS (with calcium and magnesium) (Life Technologies) supplemented with 0.1% BSA (Perkin-Elmer). The reaction mixtures were incubated for 30 min at room temperature. The level of intracellular cAMP was determined using the HTRF HiRange cAMP assay reagent kit (Cisbio) according to manufacturer's instruction. Solutions of cryptate conjugated anti-cAMP and d2 flurorophore-labelled cAMP were made in a supplied lysis buffer separately. Upon completion of the reaction, the cells were lysed with equal volume of the d2-cAMP solution and anti-cAMP solution. After a 1-h room temperature incubation, time-resolved fluorescence intensity was measured using the Envision (Perkin-Elmer) at 400 nm excitation and dual emission at 590 nm and 665 nm. […]. The assay is classed as cell-based. Background: In TR-FRET formats the signal depends on donor and acceptor labels being close together.

With `O=C(Nc1cnc(Cl)cn1)N[C@@H]1CCCN(c2ccc(C3(CN4CCOCC4)CC3)cc2)C1=O`, the concentration giving a half-maximal response (EC50) was below 0.01 µM.

For the compound `O=C(Nc1ccc(C(F)(F)F)cc1)N[C@@H]1CCCN(c2ccc(C3CCOCC3)cc2)C1=O`, the EC50 is below 0.01 µM.

As usually defined, the EC50 is the concentration that produces a half-maximal response.
